The values below come from patent publication US20090232838A1, “Ligands of melanocortin receptors” (priority 2005, published 2009).

Where two headings read alike, the source gives them in different places. Where a SMILES comes first, the peptide text is derived from it. Bridges are numbered along the chain shown (N, C = ends). [ ]: non-standard residue; d: D form. 2Nal = N[C@@H](Cc1ccc2ccccc2c1)C(=O)O; d2Nal = N[C@H](Cc1ccc2ccccc2c1)C(=O)O

Common to all, as to type: cell-based
One assay has as its target T1, hMC3-R (Homo sapiens, UniProt P41968).
T1 construct: expressed in transfected cells; host or cells: CHO-K1
In words: cyclic AMP bioassay, hMC3-R.

Another assay addresses T2, hMC5-R (Homo sapiens, UniProt P33032).
T2 construct: expressed in transfected cells; host or cells: CHO-K1
In words: cyclic AMP bioassay, hMC5-R.

The target in the next assay is T3, hMC4-R (Homo sapiens, UniProt P32245).
T3 construct: expressed in transfected cells; host or cells: CHO-K1
The assay can be described thus: cyclic AMP bioassay, hMC4-R.

The target in the next assay is T4, hMC1-R (Homo sapiens, UniProt Q01726).
T4 construct: expressed in transfected cells; host or cells: CHO-K1
In words: cyclic AMP bioassay, hMC1-R.

The mark [1] stands for this setting: Table 3A, cAMP in CHO-K1 cells, antagonist potency by Schild analysis, read-out: Kb hMC3-R.
The mark [2] stands for this setting: Table 3A, cAMP in CHO-K1 cells, agonist, read-out: EC50 hMC5-R.
The mark [3] stands for this setting: Table 3A, cAMP in CHO-K1 cells, antagonist potency by Schild analysis, read-out: Kb hMC4-R.
Setting [4] is: Table 3A, cAMP in CHO-K1 cells, agonist, read-out: EC50 hMC1-R.

As usually defined, the EC50 is the concentration at which the effect is half-maximal.

T3 sequence (P32245 whole entry): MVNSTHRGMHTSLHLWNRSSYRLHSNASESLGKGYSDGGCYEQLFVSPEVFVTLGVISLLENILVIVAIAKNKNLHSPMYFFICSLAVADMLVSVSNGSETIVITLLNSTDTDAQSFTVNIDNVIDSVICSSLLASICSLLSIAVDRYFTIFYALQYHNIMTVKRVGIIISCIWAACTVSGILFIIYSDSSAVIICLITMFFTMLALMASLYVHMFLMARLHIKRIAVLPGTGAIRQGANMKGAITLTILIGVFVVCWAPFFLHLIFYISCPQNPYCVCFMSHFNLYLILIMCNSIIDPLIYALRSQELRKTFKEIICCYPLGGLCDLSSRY
T4 sequence (Q01726 whole entry): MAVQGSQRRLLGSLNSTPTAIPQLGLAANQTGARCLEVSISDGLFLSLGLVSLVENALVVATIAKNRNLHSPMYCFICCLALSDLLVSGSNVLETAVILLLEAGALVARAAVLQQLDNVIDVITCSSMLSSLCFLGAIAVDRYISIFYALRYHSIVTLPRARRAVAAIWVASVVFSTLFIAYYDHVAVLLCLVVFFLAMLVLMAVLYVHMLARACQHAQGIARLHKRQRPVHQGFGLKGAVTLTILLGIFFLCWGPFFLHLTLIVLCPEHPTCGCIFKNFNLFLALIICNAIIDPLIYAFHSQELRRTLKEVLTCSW
T2 sequence (P33032 whole entry): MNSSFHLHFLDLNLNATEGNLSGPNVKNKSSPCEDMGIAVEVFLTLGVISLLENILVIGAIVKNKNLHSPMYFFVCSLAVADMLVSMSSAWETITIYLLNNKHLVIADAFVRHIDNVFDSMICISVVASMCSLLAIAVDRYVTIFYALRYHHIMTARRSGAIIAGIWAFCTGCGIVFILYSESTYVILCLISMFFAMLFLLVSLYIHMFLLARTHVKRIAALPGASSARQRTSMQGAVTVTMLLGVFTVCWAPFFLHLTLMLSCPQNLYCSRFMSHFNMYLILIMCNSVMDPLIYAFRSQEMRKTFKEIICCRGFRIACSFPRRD
T1 sequence (P41968 whole entry): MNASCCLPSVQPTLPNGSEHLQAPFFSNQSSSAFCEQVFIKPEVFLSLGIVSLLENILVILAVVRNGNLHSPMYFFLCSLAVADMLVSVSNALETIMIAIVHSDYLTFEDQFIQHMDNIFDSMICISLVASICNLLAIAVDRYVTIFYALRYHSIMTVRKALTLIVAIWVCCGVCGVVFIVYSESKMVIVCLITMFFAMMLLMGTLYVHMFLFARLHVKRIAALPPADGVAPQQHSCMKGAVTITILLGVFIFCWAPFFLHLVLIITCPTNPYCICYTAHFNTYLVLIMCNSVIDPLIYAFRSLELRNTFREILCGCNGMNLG
Method for hMC3-R: (§1) Intracellular cyclic AMP (cAMP) levels were determined by an electrochemiluminescence (ECL) assay (Meso Scale Discovery®, Gaithersburg, Md.; referred to hereinafter as MSD). […] Transgenic CHO-K1 cells stably expressing hMC receptor subtypes 1, 3, 4 or 5 were dispensed at a density of approximately 7,000 cells/well in 384-well Multi-Arrays plates (MSD) containing integrated carbon electrodes and coated with anti-CAMP antibody. Increasing concentrations of the test compounds were added and the cells were incubated for approximately 40 minutes at approximately 37° C. […] At the end of the second incubation period read buffer (Tris-buffered solution containing an ECL co-reactant and Triton X-100 at ph 7.8) was added and the cAMP levels in the cell lysates were immediately determined by ECL detection with a Sector Imager 6000 Reader® (MSD). Data were analyzed using a computer-assisted non-linear regression analysis (XL fit; IDBS) and reported as either an EC50 value or a Kb value.
(§2) The Kb value reflects the potency of an antagonist and is determined by Schild analysis. In brief, concentration-response curves of an agonist are carried out in the presence of increasing concentrations of an antagonist. […] It is calculated by extrapolating the line on a Schild plot to zero on the y-axis.
Method for hMC5-R: as §1, §2

For `CC(=O)N[C@H]1CSSC[C@@H](C(=O)N2CCC[C@H]2C(=O)N2CCC[C@H]2C(=O)N[C@@H](CCCCN)C(=O)N[C@@H](CC(=O)O)C(=O)NCCC(=O)N[C@@H](Cc2ccc(O)cc2)C(=O)NCC(=O)N[C@@H](CCCNC(=N)N)C(=O)N[C@@H](CCCCN)C(=O)N[C@@H](CCCCN)C(=O)N[C@@H](CCCNC(=N)N)C(=O)N[C@@H](CCCNC(=N)N)C(=O)N[C@@H](CCC(N)=O)C(=O)N[C@@H](CCCNC(=N)N)C(=O)N[C@@H](CCCNC(=N)N)C(=O)N[C@@H](CCCNC(=N)N)C(N)=O)NC(=O)[C@H](C)NC(=O)[C@H](Cc2ccc3ccccc3c2)NC(=O)[C@H](CCCNC(=N)N)NC(=O)[C@@H](Cc2ccc3ccccc3c2)NC(=O)[C@H](Cc2c[nH]cn2)NC(=O)[C@H](CCC(=O)O)NC1=O`, the Kb worked out at 25.6 nM at hMC3-R and 7.37 nM at hMC4-R. Further, the EC50 at hMC5-R worked out at 82.9 nM; at hMC1-R, 29.7 nM.
Regarding `CCCC[C@H](NC(C)=O)C(=O)N[C@H]1CC(=O)NCCCC[C@@H](C(=O)NCCOCCOCC(=O)NCCOCCOCC(=O)N[C@@H](Cc2ccc(O)cc2)C(=O)NCC(=O)N[C@@H](CCCNC(=N)N)C(=O)N[C@@H](CCCCN)C(=O)N[C@@H](CCCCN)C(=O)N[C@@H](CCCNC(=N)N)C(=O)N[C@@H](CCCNC(=N)N)C(=O)N[C@@H](CCC(N)=O)C(=O)N[C@@H](CCCNC(=N)N)C(=O)N[C@@H](CCCNC(=N)N)C(=O)N[C@@H](CCCNC(=N)N)C(N)=O)NC(=O)[C@H](Cc2c[nH]c3ccccc23)NC(=O)[C@H](CCCNC(=N)N)NC(=O)[C@@H](Cc2ccc3ccccc3c2)NC(=O)[C@H](Cc2c[nH]cn2)NC1=O`, the Kb on hMC3-R (setting [1]) was determined as 8.97 nM; at hMC4-R (setting [3]) it was 4.61 nM. In addition, the EC50 at hMC5-R (setting [2]) stood at 2.86 nM; on hMC1-R (setting [4]), 3.23 nM.
For `CCCC[C@H](NC(C)=O)C(=O)N[C@H]1CSSC[C@@H](C(=O)NCCC(=O)N[C@@H](CCCNC(=N)N)C(=O)N[C@@H](CCCNC(=N)N)C(=O)N[C@@H](CCCNC(=N)N)C(=O)N[C@@H](CCCNC(=N)N)C(=O)N[C@@H](CCCNC(=N)N)C(=O)N[C@@H](CCC(N)=O)C(=O)N[C@@H](CCCNC(=N)N)C(=O)N[C@@H](CCCNC(=N)N)C(=O)N[C@@H](CCCNC(=N)N)C(N)=O)NC(=O)[C@H](Cc2c[nH]c3ccccc23)NC(=O)[C@H](CCCNC(=N)N)NC(=O)[C@@H](Cc2ccccc2)NC(=O)[C@H](Cc2c[nH]cn2)NC(=O)[C@@H](C)NC1=O`, the concentration for a half-maximal effect (EC50) at hMC3-R was determined as 9.37 nM; on hMC5-R, 1570 nM; at hMC4-R it was 1.25 nM; at hMC1-R, 7.15 nM.
On to `CC(=O)N[C@H]1CSSC[C@@H](C(=O)N2CCC[C@H]2C(=O)N2CCC[C@H]2C(=O)N[C@@H](CCCCN)C(=O)N[C@@H](CC(=O)O)C(N)=O)NC(=O)[C@H](C)NC(=O)[C@H](Cc2ccc3ccccc3c2)NC(=O)[C@H](CCCNC(=N)N)NC(=O)[C@@H](Cc2ccc3ccccc3c2)NC(=O)[C@H](Cc2c[nH]cn2)NC(=O)[C@H](CCC(=O)O)NC1=O` [Ac-c(Cys-Glu-His-D-2-Nal-Arg-2-Nal-Ala-Cys)-Pro-Pro-Lys-Asp-NH2] (Ac-CEH[d2Nal]R[2Nal]ACPPKD-NH2; disulfide 1-8), for which the results for the Kb on hMC3-R and on hMC4-R were 140 nM and 12.2 nM, respectively. Moreover, the concentration for a half-maximal effect (EC50) was 66.9 nM at hMC5-R and 33.6 nM at hMC1-R.
As for `CCCC[C@H](NC(C)=O)C(=O)N[C@H]1CSSC[C@@H](C(=O)NCCC(=O)NCC(=O)N[C@@H](CCCNC(=N)N)C(=O)N[C@@H](CCCNC(=N)N)C(=O)N[C@@H](CCCNC(=N)N)C(=O)N[C@@H](CCCNC(=N)N)C(=O)N[C@@H](CCCNC(=N)N)C(=O)N[C@@H](CCC(N)=O)C(=O)N[C@@H](CCCNC(=N)N)C(=O)N[C@@H](CCCNC(=N)N)C(=O)N[C@@H](CCCNC(=N)N)C(N)=O)NC(=O)[C@H](Cc2c[nH]c3ccccc23)NC(=O)[C@H](CCCNC(=N)N)NC(=O)[C@@H](Cc2ccccc2)NC(=O)[C@H](Cc2c[nH]cn2)NC(=O)[C@@H](C)NC1=O`, the 50% effective concentration (EC50) at hMC3-R turned out to be 7.32 nM; at hMC5-R, 2010 nM; at hMC4-R, 0.964 nM; at hMC1-R, 0.481 nM.
Regarding `CC(=O)N[C@H]1CSSC[C@@H](C(=O)N2CCC[C@H]2C(=O)N2CCC[C@H]2C(=O)N[C@@H](CCCCN)C(=O)N[C@@H](CC(=O)O)C(=O)NCCC(=O)N[C@@H](Cc2ccc(O)cc2)C(=O)NCC(=O)N[C@@H](CCCNC(=N)N)C(=O)N[C@@H](CCCCN)C(=O)N[C@@H](CCCNC(=N)N)C(=O)N[C@@H](CCCNC(=N)N)C(=O)N[C@@H](CCCNC(=N)N)C(=O)N[C@@H](CCC(N)=O)C(=O)N[C@@H](CCCNC(=N)N)C(=O)N[C@@H](CCCNC(=N)N)C(=O)N[C@@H](CCCNC(=N)N)C(N)=O)NC(=O)[C@H](C)NC(=O)[C@H](Cc2ccc3ccccc3c2)NC(=O)[C@H](CCCNC(=N)N)NC(=O)[C@@H](Cc2ccc3ccccc3c2)NC(=O)[C@H](Cc2c[nH]cn2)NC(=O)[C@H](CCC(=O)O)NC1=O`, the results for the Kb on hMC3-R and at hMC4-R were 15 nM and 8.68 nM, respectively. In addition, the half-maximal effective concentration (EC50) on hMC5-R is 28.2 nM; at hMC1-R, 34.7 nM.
`CC(=O)N[C@H]1CSSC[C@@H](C(=O)N2CCC[C@H]2C(=O)N2CCC[C@H]2C(=O)N[C@@H](CCCCN)C(=O)N[C@@H](CC(=O)O)C(=O)NCCC(=O)N[C@@H](Cc2ccc(O)cc2)C(=O)NCC(=O)N[C@@H](CCCNC(=N)N)C(=O)N[C@@H](CCC(N)=O)C(=O)N[C@@H](CCCCN)C(=O)N[C@@H](CCCCN)C(=O)N[C@@H](CCCNC(=N)N)C(=O)N[C@@H](CCCNC(=N)N)C(=O)N[C@@H](CCCNC(=N)N)C(=O)N[C@@H](CCCNC(=N)N)C(=O)N[C@@H](CCCNC(=N)N)C(N)=O)NC(=O)[C@H](C)NC(=O)[C@H](Cc2c[nH]c3ccccc23)NC(=O)[C@H](CCCNC(=N)N)NC(=O)[C@@H](Cc2ccc3ccccc3c2)NC(=O)[C@H](Cc2c[nH]cn2)NC(=O)[C@H](CCC(=O)O)NC1=O`: the Kb on hMC3-R (setting [1]) was 13.7 nM; on hMC4-R (setting [3]), 9.38 nM. Further, the EC50 was determined as 54.2 nM on hMC5-R (setting [2]) and 12 nM at hMC1-R (setting [4]).
As for `CC(=O)N[C@H]1CSSC[C@@H](C(=O)N2CCC[C@H]2C(=O)N2CCC[C@H]2C(=O)N[C@@H](CCCNC(=N)N)C(=O)N[C@@H](CC(=O)O)C(=O)NCCC(=O)N[C@@H](CCCNC(=N)N)C(=O)N[C@@H](CCCNC(=N)N)C(=O)N[C@@H](CCCNC(=N)N)C(=O)N[C@@H](CCCNC(=N)N)C(=O)N[C@@H](CCCNC(=N)N)C(=O)N[C@@H](CCC(N)=O)C(=O)N[C@@H](CCCNC(=N)N)C(=O)N[C@@H](CCCNC(=N)N)C(=O)N[C@@H](CCCNC(=N)N)C(N)=O)NC(=O)[C@H](C)NC(=O)[C@H](Cc2ccc3ccccc3c2)NC(=O)[C@H](CCCNC(=N)N)NC(=O)[C@@H](Cc2ccc3ccccc3c2)NC(=O)[C@H](Cc2c[nH]cn2)NC(=O)[C@H](CCC(=O)O)NC1=O`, the Kb on hMC3-R turned out to be 30.9 nM; at hMC4-R, 6.66 nM. The 50% effective concentration (EC50) stood at 501 nM on hMC5-R and 39.7 nM at hMC1-R.
Turning to `CC(=O)N[C@H]1CSSC[C@@H](C(=O)N2CCC[C@H]2C(=O)N2CCC[C@H]2C(=O)N[C@@H](CCCCN)C(=O)N[C@@H](CC(=O)O)C(=O)NCCC(=O)N[C@@H](Cc2ccc(O)cc2)C(=O)NCC(=O)N[C@@H](CCCNC(=N)N)C(=O)N[C@@H](CCCCN)C(=O)N[C@@H](CCCCN)C(=O)N[C@@H](CCCNC(=N)N)C(=O)N[C@@H](CCCNC(=N)N)C(=O)N[C@@H](CCCNC(=N)N)C(=O)N[C@@H](CCC(N)=O)C(=O)N[C@@H](CCCNC(=N)N)C(=O)N[C@@H](CCCNC(=N)N)C(N)=O)NC(=O)[C@H](C)NC(=O)[C@H](Cc2c[nH]c3ccccc23)NC(=O)[C@H](CCCNC(=N)N)NC(=O)[C@@H](Cc2ccc3ccccc3c2)NC(=O)[C@H](Cc2c[nH]cn2)NC(=O)[C@H](CCC(=O)O)NC1=O`, the figures for the Kb at hMC3-R (setting [1]) and at hMC4-R (setting [3]) were 20.8 nM and 7.31 nM, respectively. The values for the EC50 on hMC5-R (setting [2]) and on hMC1-R (setting [4]) were 44.2 nM and 16.4 nM, respectively.
In the same order, the values of `CC(=O)N[C@H]1CSSC[C@@H](C(=O)N2CCC[C@H]2C(=O)N2CCC[C@H]2C(=O)N[C@@H](CCCCN)C(=O)N[C@@H](CC(=O)O)C(=O)NCCC(=O)N[C@@H](Cc2ccc(O)cc2)C(=O)NCC(=O)N[C@@H](CCCNC(=N)N)C(=O)N[C@@H](CCCCN)C(=O)N[C@@H](CCCCN)C(=O)N[C@@H](CCCNC(=N)N)C(=O)N[C@@H](CCCNC(=N)N)C(=O)N[C@@H](CCC(N)=O)C(=O)N[C@@H](CCCNC(=N)N)C(=O)N[C@@H](CCCNC(=N)N)C(=O)N[C@@H](CCCNC(=N)N)C(N)=O)NC(=O)[C@H](C)NC(=O)[C@H](Cc2c[nH]c3ccccc23)NC(=O)[C@H](CCCNC(=N)N)NC(=O)[C@@H](Cc2ccc3ccccc3c2)NC(=O)[C@H](Cc2c[nH]cn2)NC(=O)[C@H](CCC(=O)O)NC1=O` are 70 nM, 1.66 nM, 38.2 nM and 6.3 nM.
Turning to `CC(=O)N[C@H]1CSSC[C@@H](C(=O)N2CCC[C@H]2C(=O)N2CCC[C@H]2C(=O)N[C@@H](CCCCN)C(=O)N[C@@H](CC(=O)O)C(=O)NCCC(=O)N[C@@H](Cc2ccc(O)cc2)C(=O)NCC(=O)N[C@@H](CCCNC(=N)N)C(=O)N[C@@H](CCCCN)C(=O)N[C@@H](CCCCN)C(=O)N[C@@H](CCCNC(=N)N)C(=O)N[C@@H](CCCNC(=N)N)C(=O)N[C@@H](CCC(N)=O)C(=O)N[C@@H](CCCNC(=N)N)C(=O)N[C@@H](CCCNC(=N)N)C(=O)N[C@@H](CCCNC(=N)N)C(N)=O)NC(=O)[C@H](C)NC(=O)[C@H](Cc2cccc3ccccc23)NC(=O)[C@H](CCCNC(=N)N)NC(=O)[C@@H](Cc2ccc3ccccc3c2)NC(=O)[C@H](Cc2c[nH]cn2)NC(=O)[C@H](CCC(=O)O)NC1=O`, the Kb at hMC3-R worked out at 215 nM; at hMC4-R, 5.87 nM. Besides, the 50% effective concentration (EC50) on hMC5-R was found to be 1290 nM; at hMC1-R, 43.3 nM.
